Experimental data as given in PMC3412845, “Waking Action of Ursodeoxycholic Acid (UDCA) Involves Histamine and GABAA Receptor Block” (PLoS ONE, 2012).

Experiments:
NMDA receptors = assay: NMDA-evoked currents in isolated neurons; format: cell-based
Method: Recordings from histaminergic neurons in male Wistar rat (22–26 day old) or 30–60 day old mouse (SV129, histidine decarboxylase deficient HDC−/− or their wild type littermates) hypothalamic slices were performed as previously described. Slices were obtained between 9 and 11 a.m. In the beginning of whole-cell voltage clamp recordings TMN neurons were identified with the help of DIC microscopy and electrophysiological criteria as previously described. Inhibitory postsynaptic currents (IPSCs) were evoked by local stimulation through a bipolar stainless-steel stimulating electrode (50 µm; WPI, UK). The stimulation of axonal endings coming to TMN from ventrolateral preoptic area (VLPO) was done as described in [22]. Visual identification of histaminergic neurons recorded in cell-attached configuration (see [16]) was confirmed by the significant reduction of firing rate by the histamine 3 (H3) receptor agonist R-α-methylhistamine (0.2 µM), which was performed at the end of each experiment. Individual neurons were separated by vibrodissociation after brief preincubation with papain from the hypothalamic slices of mice or rats and identified as TMN neurons according to their size and shape. Identification was confirmed post hoc with the single-cell RT-PCR (all data presented in the manuscript were obtained from histidine decarboxylase-expressing neurons), [40]. TMN neurons from HDC−/− mice were identified by the expression of peripherin [16]. Whole-cell voltage-clamp recordings from isolated neurons were done with an EPC-9 amplifier and TIDA for Windows (HEKA, Lambrecht, Germany) at room temperature. Membrane potentials were not corrected for liquid junction potential (5.6 mV, calculated with LJPCalc, Barry, 1994). The intracellular solution was composed of (in mM) 140 KCl, 2 MgCl2, 0.5 CaCl2, 5 EGTA, 2 ATP and 10 HEPES (pH 7.2 adjusted with NaOH). A fast perfusion technique was used for application of ligands and modulators of fast ionotropic receptors, [41]. […] EC50 is the ligand concentration producing a half-maximal response, [ligand] is ligand concentration, and n is the Hill slope. Hill coefficients were obtained from the slope of the log/log plot of the dose-response curves. […] Steady-state amplitudes of the responses were used for the construction of dose-response plots if not mentioned otherwise.
For the testing of UDCA action at NMDA receptors a maximal 0.2 mM concentration of agonist was used. Recordings were done in Mg^2+ -free solution in the presence of 10 µM of glycine. NMDA-currents were abolished by the NMDA receptor antagonist D-AP5 (100 µM).

β3γ2L GABAA receptors = target: T1, β3γ2L GABAA receptors (UniProt P22723+P28472); assay: Patch-clamp of recombinant β3γ2L receptors in HEK293 cells, histamine-evoked currents; format: cell-based, human β3, mouse γ2L; settings: histamine 5 mM
T1 construct: expressed in transfected cells; host or cells: HEK293
Method: HEK 293 cells were obtained from DSM (Deutsche Sammlung von Mikroorganismen und Zellkulturen GmbH, DSM, Braunschweig). They were grown and maintained according to published standard protocols. Briefly, cells were grown in minimal essential medium supplemented with 10% fetal bovine serum, 100units/ml penicillin and streptomycin and 2 mM L-glutamine and splitted once per week. Semiconfluent cells were transfected on the third day after splitting with the help of Lipofectamine 2000 (Invitrogen), recordings were done 48–72 hrs after transfection.
The GABAAR subunit cDNAs, generously donated by G.Gisselmann (rat α1, mouse γ2L, rat β1, β2 and human β3 [26]) and J.H. Steinbach (rat α1V256S [28] and rat α1Q241L [44]), were subcloned into pcDNA3 (Invitrogen, Karlsruhe, Germany) and applied in a ratio 1∶1∶1 for the α1βxγ2L receptor and 1∶1 for α1β3 or β3γ2L receptors. […] For each receptor type patch clamp recordings were obtained from at least three separate transfections. Whole-cell patch clamp recordings were done in a similar extracellular solution as for the native cells (see above) except that the concentration of MgCl2 was reduced to 1.2 mM. Intracellular electrodes contained 140 mM CsCl (instead of KCl), pH adjusted with CsOH. The voltage was held at −40 mV.

[1] = test system: cultured hypothalamic neurons; assay: Microelectrode array (MEA) recordings of cultured hypothalamic neurons; format: cell-based, mouse
Method: Primary dissociated cultures of posterior hypothalamus were prepared from newborn mice according to the protocols previously described, [43]. […] Recordings were done between 11th-21st day after plating. […] Signals from all 60 electrodes were simultaneously sampled at 25 kHz, visualized and stored using the standard software […] provided by Multi Channel Systems. Spike detection and analysis was performed offline with the software […] (RESULT Medizinische […], Germany), which uses the agreement coefficient “Cohen's kappa” (κ) to assess the degree of spike and burst synchrony for selected pairs of electrodes. […] In order to describe the distribution of kappa across the whole MEA, we calculated the mean of all kappa-values obtained for pairs of “active” electrodes. At the beginning of experiments the basal medium was replaced by a magnesium-free HEPES-based recording solution (see above) and measurements were started after a 20 min adaptation phase. Every measurement comprised three recordings - control, test substance and washout (second control) - each two minutes long and separated by an intermediate period of 30 seconds.

T1 sequence (P28472 26-473): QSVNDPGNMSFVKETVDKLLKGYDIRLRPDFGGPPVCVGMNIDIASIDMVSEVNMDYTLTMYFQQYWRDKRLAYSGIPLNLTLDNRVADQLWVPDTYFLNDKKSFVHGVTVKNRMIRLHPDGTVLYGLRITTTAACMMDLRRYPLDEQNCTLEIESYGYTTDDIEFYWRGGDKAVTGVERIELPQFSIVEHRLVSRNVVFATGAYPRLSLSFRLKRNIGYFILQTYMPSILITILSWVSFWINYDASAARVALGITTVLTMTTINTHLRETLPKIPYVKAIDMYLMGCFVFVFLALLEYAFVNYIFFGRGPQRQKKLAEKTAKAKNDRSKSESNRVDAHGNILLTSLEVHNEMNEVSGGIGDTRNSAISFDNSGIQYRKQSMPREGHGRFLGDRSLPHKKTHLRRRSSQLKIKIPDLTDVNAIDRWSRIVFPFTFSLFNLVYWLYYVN
T1 sequence (P22723 39-474): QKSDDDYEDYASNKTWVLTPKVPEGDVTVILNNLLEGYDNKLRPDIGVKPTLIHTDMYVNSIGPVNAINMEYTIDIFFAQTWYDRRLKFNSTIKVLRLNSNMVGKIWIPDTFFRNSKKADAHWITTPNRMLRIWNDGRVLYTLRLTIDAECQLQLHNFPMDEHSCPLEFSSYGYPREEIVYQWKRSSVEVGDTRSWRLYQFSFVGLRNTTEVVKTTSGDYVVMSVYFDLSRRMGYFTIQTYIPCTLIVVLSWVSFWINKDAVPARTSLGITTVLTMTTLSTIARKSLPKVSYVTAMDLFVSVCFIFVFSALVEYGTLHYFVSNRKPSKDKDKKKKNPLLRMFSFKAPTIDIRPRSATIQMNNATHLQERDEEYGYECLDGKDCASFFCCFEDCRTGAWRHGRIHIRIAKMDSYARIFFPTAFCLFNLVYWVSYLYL

## C[C@H](CCC(=O)O)[C@H]1CC[C@H]2[C@@H]3[C@@H](O)C[C@@H]4C[C@H](O)CC[C@]4(C)[C@H]3CC[C@]12C [UDCA, ursodeoxycholic acid]
NMDA receptors
  concentration above which block of NMDA receptors starts: higher than 100 µM
NMDA receptors; 100 µM
  NMDA-receptor mediated currents: did not affect
NMDA receptors; read-out: IC50 of NMDA receptor block, n = 4, NMDA 0.2 mM, Mg2+-free, 10 µM glycine
  IC50: 540 ± 40 µM
β3γ2L GABAA receptors
  Hill coefficient nH of UDCA block: 0.62
β3γ2L GABAA receptors; read-out: IC50 of block of histamine-evoked currents
  IC50: 232 ± 66 µM
[1]; UDCA
  synchronicity of firing within the hypothalamic network (Cohen's kappa): increased
[1]; UDCA 10, 30 or 100 µM
  firing frequency: not affected
[1]; with GABAA receptor antagonist gabazine
  effect on synchronization in the presence of gabazine: abolished
[1]; with mifepristone 10 µM and spironolactone 10 µM
  UDCA-induced synchronization of firing with mifepristone and spironolactone: not affected
